What all share (assay type): cell-based
The subject of assay [1] is MCF-7 estrogen receptor-positive breast cancer cells. The experiment in a line: […]-GLO luminescent cell viability assay, MCF-7. The following applies: Homo sapiens, MCF7, MCF-7 cells, 5000 cells/well, 72 h at 37° C. Here is the method:
(§1) All the compounds are tested in three cell lines. Different concentration of compounds, ranging from about 0.01 nM to about 100,000 nM were delivered to 5×10^3 cells per well, which were then incubated for three days at 37° C., followed by CTG assay.
(§2) In this assay, the number of viable cells in culture is determined based on the quantification of ATP present, which signals the presence of metabolically active cells. Damaged cells are not detected as the ATP leaked from these cells is quickly consumed by ATPases that are also released upon damage). The amount of ATP is determined using a system based on luciferase and D-luciferin resulting in light generation.
(§3) The cell lines were plated in 13, 96 well plates at a density of 5000 cells/well in total volumes of 50 μL in phenol-red free medium and incubated for overnight.
(§4) 25 μL of 40 nM estradiol should be added to all appropriate wells on the plate. […] 25 μL of stocks (containing the compounds to be tested, DMSO and phenol-red free medium) were added to cells and medium already on plate. 50 μL of medium were added to media wells, and 50 μL of mix (contain 32 mL DMSO+768 mL phenol-red free medium) to all vehicle control wells.
(§5) Luminescence results were read on TriLux Luminometer. The luminescent signal is proportional to the number of active cells present in culture. […] As a consequence, the number of metabolically active cells can be directly derived from the luminescent signal using a specific calibration curve. Data were expressed as percentage of untreated control (i.e. treatment value-blank/vehicle value blank), mean±SE for three replications.

The next assay has as its system Ishikawa cells. The experiment in a line: […]-GLO luminescent cell viability assay, Ishikawa. The settings on record: Homo sapiens, 5000 cells/well, 72 h at 37° C. Here is the method: as §1, §2, §3, §4, §5
Assay [2] has as its system MDA-MB-231 estrogen receptor-negative breast cancer cell line. The experiment in a line: […]-GLO luminescent cell viability assay, MDA-MB-231. The following applies: Homo sapiens, MDA-MB-231 cells, 5000 cells/well, 72 h at 37° C. Here is the method: as §1, §2, §3, §4, §5

Values after ≈ are worked out from the molar mass of the structure shown.

As for `COc1ccc(S(=O)(=O)NN2CCc3ccccc3C2)cc1` [Redda-CM-3-13, N-(3,4-dihydroisoquinolin-2(1H)-yl)-4-methoxybenzenesulfonamide], the values for the half-inhibitory concentration (IC50) (in assay [1]; in the assay on Ishikawa cells; in assay [2]) were 1.27 µg/mL (≈ 3.99 µM), 0.45 µg/mL (≈ 1.41 µM) and 0.76 µg/mL (≈ 2.39 µM), respectively.
For `O=C(NN1CCc2ccccc2C1)c1ccccc1` [Redda-GM-3-15, N-(3,4-dihydroisoquinolin-2-(1H)-yl)benzamide], in that order: 0.63 µg/mL (≈ 2.5 µM), 0.23 µg/mL (≈ 0.912 µM) and 0.74 µg/mL (≈ 2.93 µM).
For `COc1ccc(C(=O)NN2CCc3ccccc3C2)cc1` [Redda-GM-3-16, N-(3,4-dihydroisoquinolin-2(1H)-yl)-4-methoxybenzamide], the IC50 in assay [1] was found to be 0.93 µg/mL (≈ 3.29 µM); with Ishikawa cells, 0.21 µg/mL (≈ 0.744 µM); in assay [2], 0.78 µg/mL (≈ 2.76 µM).
The corresponding values for `O=C(NN1CCc2ccccc2C1)c1ccc(Cl)cc1` [Redda-GM-3-18, 4-chloro-N-(3,4-dihydroisoquinolin-2(1H)-yl)bemamide] are 0.71 µg/mL (≈ 2.48 µM), 0.61 µg/mL (≈ 2.13 µM) and 0.8 µg/mL (≈ 2.79 µM).
For the compound `Cc1ccc(C(=O)NN2CCc3ccccc3C2)cc1` [Redda-GM-3-19], the IC50 in assay [1] amounted to 0.7 µg/mL (≈ 2.63 µM); in the assay with Ishikawa cells it was 0.44 µg/mL (≈ 1.65 µM); in assay [2] it was 1.02 µg/mL (≈ 3.83 µM).

The term IC50 denotes the concentration that inhibits the measured activity by half. A lower IC50 goes with higher potency.

The record behind these values is US8546426B2, “N-aminotetrahydroisoquinolines as anti-cancer agents” (Florida A&M University Board of Trustees, priority 2011, dated 2013).
